# US10785975B2, “Water and feed antimicrobial preservative” (priority 2009, dated 2020)
# Like-named read-outs stand apart in the source and are kept apart here.
# Key:
# [1] = system: Salmonella typhimurium; assay: Example 3: buffered organic acid mixtures with pelargonic acid in water; type: cell-based
# Procedure: (§1) Procedure: Propionic and acetic acids were buffered with ammonium hydroxide to a pH of 3 and combined with pelargonic in the ratios above. Acid content of the buffered solutions was determined by weight to weight ratio calculation (weight of acid/total weight of buffered solution) and adjusted to provide an equal acid value for each treatment. […] The pHs of the deionized water solutions were recorded and any problems with solubility noted.
# (§2) 100 ul of a nutrient broth culture of Salmonella typhimurium was added to each dilution tube. After addition, tubes were vortexed and allowed to stand. At 4 and 24 hours after addition of the inoculum, 100 ul of the solution was plated on Standard Plate agar (triplicate plates). Plates were incubated at 37° C. for 24 hours prior to enumeration. The minimum effective dose of each acid was determined by linear regression.
# [2] = system: Salmonella typhimurium; assay: Study 6: capric acid in acetic or propionic acid against salmonella in poultry feed; type: cell-based; details: Capric/Acetic acids, 24 hours after treatment
# Procedure: Commercial poultry feed amended with Salmonella typhimurium was treated with 1 or 3 kg/MT of the solutions listed below. Twenty four hours after treatment, 10 gr of feed was added to 90 ml Butterfield buffer, mixed and then 100 ul of the solution was plated on Standard Plate agar (triplicate plates). Plates were incubated at 37° C. for 24 hours prior to enumeration.
# [3] = system: Salmonella typhimurium; assay: Example 1: effect of pH buffering of acetic and propionic acid on antimicrobial activity in water; type: cell-based; details: for MIC at 4 Hr / MIC at 24 HR: Minimum Inhibitory Concentrations, by linear regression over 0.025-0.1% acid solutions, pH 3
# Procedure: Propionic and acetic acids were buffered with ammonium hydroxide to pHs ranging from 1 to 7. Acid contents of the buffered solutions were determined by a weight to weight ratio calculation to obtain the same acid content in the test solutions. […] The pHs of the deionized water solutions were recorded and any problems with solubility noted.
# as §2
# [4] = system: Salmonella typhimurium; assay: Study 4: pelargonic acid (1-20%) in buffered propionic or acetic acid in water; type: cell-based
# Procedure: as §1, with “Propionic” for “Procedure: Propionic”, “listed.” for “above.”
# as §2, with “enumeration.” for “enumeration. The minimum effective dose of each acid was determined by linear regression.”
# [5] = system: M. gypseum; details: acids tested independently, cited from earlier work
# [6] = Product Conc. 0.025 (% acid solution in water)
# [7] = Product Conc. 0.05 (% acid solution in water)
# [8] = Product Conc. 0.075 (% acid solution in water)
# [9] = Product Conc. 0.1 (% acid solution in water)
# [10] = Product Conc. 0.025 (% total acid solution in water), 4 hr
# [11] = Product Conc. 0.025 (% total acid solution in water)
# [12] = Product Conc. 0.05 (% total acid solution in water), 4 hr
# [13] = Product Conc. 0.05 (% total acid solution in water)
# [14] = Product Conc. 0.075 (% total acid solution in water), 4 hr
# [15] = Product Conc. 0.075 (% total acid solution in water)
# [16] = Product Conc. 0.1 (% total acid solution in water), 4 hr
# [17] = Product Conc. 0.1 (% total acid solution in water)
# [18] = Product Concentration 0.025 (% total acid solution in water)
# [19] = Product Concentration 0.05 (% total acid solution in water)
smiles,measurement,setting,value
CC(=O)O [Acetic acid],MIC at 4 HR,"[1]; Minimum Inhibitory Concentration of Pelargonic when mixed with acetic or propionic acid (buffered to pH 3), by linear regression, 4 hr",0.171
same,% Reduction,[2]; 1 kg/ton,41.3%
same,cfu/g,[2]; 1 kg/ton,3367 cfu/g
same,% Reduction,[2]; 3 kg/ton,54.6%
same,cfu/g,[2]; 3 kg/ton,2600 cfu/g
"CC(=O)O [Acetic pH 3, Acetic acid]",MIC at 4 Hr,[3],0.176
same,MIC at 24 HR,[3],0.073
same,Salmonella at time Interval 4 hr % reduction,[3]; [6],27%
same,Salmonella at time Interval 4 hr cfu/g,[3]; [6],1100 cfu/g
same,Salmonella at time Interval 24 hr % reduction,[3]; [6],75%
same,Salmonella at time Interval 24 hr cfu/g,[3]; [6],300 cfu/g
same,Salmonella at time Interval 4 hr % reduction,[3]; [7],44%
same,Salmonella at time Interval 4 hr cfu/g,[3]; [7],843 cfu/g
same,Salmonella at time Interval 24 hr % reduction,[3]; [7],90%
same,Salmonella at time Interval 24 hr cfu/g,[3]; [7],117 cfu/g
same,Salmonella at time Interval 4 hr % reduction,[3]; [8],38%
same,Salmonella at time Interval 4 hr cfu/g,[3]; [8],927 cfu/g
same,Salmonella at time Interval 24 hr % reduction,[3]; [8],92%
same,Salmonella at time Interval 24 hr cfu/g,[3]; [8],90 cfu/g
same,Salmonella at time Interval 4 hr % reduction,[3]; [9],42%
same,Salmonella at time Interval 4 hr cfu/g,[3]; [9],873 cfu/g
same,Salmonella at time Interval 24 hr % reduction,[3]; [9],96%
same,Salmonella at time Interval 24 hr cfu/g,[3]; [9],43 cfu/g
same,Salmonella at time Interval 4 hr % reduction,[1]; [10],38%
same,Salmonella at time Interval 4 hr cfu/g,[1]; [10],943 cfu/g
same,Salmonella at time Interval 24 hr % reduction,[1]; [11],92%
same,Salmonella at time Interval 24 hr cfu/g,[1]; [11],123 cfu/g
same,Salmonella at time Interval 4 hr % reduction,[1]; [12],34%
same,Salmonella at time Interval 4 hr cfu/g,[1]; [12],1007 cfu/g
same,Salmonella at time Interval 24 hr % reduction,[1]; [13],92%
same,Salmonella at time Interval 24 hr cfu/g,[1]; [13],120 cfu/g
same,Salmonella at time Interval 4 hr % reduction,[1]; [14],34%
same,Salmonella at time Interval 4 hr cfu/g,[1]; [14],1007 cfu/g
same,Salmonella at time Interval 24 hr % reduction,[1]; [15],95%
same,Salmonella at time Interval 24 hr cfu/g,[1]; [15],77 cfu/g
same,Salmonella at time Interval 4 hr % reduction,[1]; [16],36%
same,Salmonella at time Interval 4 hr cfu/g,[1]; [16],967 cfu/g
same,Salmonella at time Interval 24 hr % reduction,[1]; [17],95%
same,Salmonella at time Interval 24 hr cfu/g,[1]; [17],83 cfu/g
same,Salmonella at time Interval 4 hr % reduction,[4]; [18],29%
same,Salmonella at time Interval 4 hr cfu/g,[4]; [18],1000 cfu/g
same,Salmonella at time Interval 24 hr % reduction,[4]; [18],96%
same,Salmonella at time Interval 24 hr cfu/g,[4]; [18],60 cfu/g
same,Salmonella at time Interval 4 hr % reduction,[4]; [19],32%
same,Salmonella at time Interval 4 hr cfu/g,[4]; [19],950 cfu/g
same,Salmonella at time Interval 24 hr % reduction,[4]; [19],99%
same,Salmonella at time Interval 24 hr cfu/g,[4]; [19],20 cfu/g
"CCC(=O)O [Propionic pH 3, Propionic acid]",MIC at 4 Hr,[3],0.149
same,MIC at 24 HR,[3],0.069
same,Salmonella at time Interval 4 hr % reduction,[3]; [6],2%
same,Salmonella at time Interval 4 hr cfu/g,[3]; [6],1467 cfu/g
same,Salmonella at time Interval 24 hr % reduction,[3]; [6],84%
same,Salmonella at time Interval 24 hr cfu/g,[3]; [6],190 cfu/g
same,Salmonella at time Interval 4 hr % reduction,[3]; [7],44%
same,Salmonella at time Interval 4 hr cfu/g,[3]; [7],847 cfu/g
same,Salmonella at time Interval 24 hr % reduction,[3]; [7],93%
same,Salmonella at time Interval 24 hr cfu/g,[3]; [7],83 cfu/g
same,Salmonella at time Interval 4 hr % reduction,[3]; [8],35%
same,Salmonella at time Interval 4 hr cfu/g,[3]; [8],973 cfu/g
same,Salmonella at time Interval 24 hr % reduction,[3]; [8],95%
same,Salmonella at time Interval 24 hr cfu/g,[3]; [8],60 cfu/g
same,Salmonella at time Interval 4 hr % reduction,[3]; [9],60%
same,Salmonella at time Interval 4 hr cfu/g,[3]; [9],603 cfu/g
same,Salmonella at time Interval 24 hr % reduction,[3]; [9],98%
same,Salmonella at time Interval 24 hr cfu/g,[3]; [9],27 cfu/g
same,Salmonella at time Interval 4 hr % reduction,[1]; [10],25%
same,Salmonella at time Interval 4 hr cfu/g,[1]; [10],1133 cfu/g
same,Salmonella at time Interval 24 hr % reduction,[1]; [11],95%
same,Salmonella at time Interval 24 hr cfu/g,[1]; [11],70 cfu/g
same,Salmonella at time Interval 4 hr % reduction,[1]; [12],42%
same,Salmonella at time Interval 4 hr cfu/g,[1]; [12],880 cfu/g
same,Salmonella at time Interval 24 hr % reduction,[1]; [13],99%
same,Salmonella at time Interval 24 hr cfu/g,[1]; [13],17 cfu/g
same,Salmonella at time Interval 4 hr % reduction,[1]; [14],25%
same,Salmonella at time Interval 4 hr cfu/g,[1]; [14],1133 cfu/g
same,Salmonella at time Interval 24 hr % reduction,[1]; [15],99%
same,Salmonella at time Interval 24 hr cfu/g,[1]; [15],20 cfu/g
same,Salmonella at time Interval 4 hr % reduction,[1]; [16],44%
same,Salmonella at time Interval 4 hr cfu/g,[1]; [16],857 cfu/g
same,Salmonella at time Interval 24 hr % reduction,[1]; [17],99%
same,Salmonella at time Interval 24 hr cfu/g,[1]; [17],13 cfu/g
same,Salmonella at time Interval 4 hr % reduction,[4]; [18],29%
same,Salmonella at time Interval 4 hr cfu/g,[4]; [18],990 cfu/g
same,Salmonella at time Interval 24 hr % reduction,[4]; [18],91%
same,Salmonella at time Interval 24 hr cfu/g,[4]; [18],130 cfu/g
same,Salmonella at time Interval 4 hr % reduction,[4]; [19],29%
same,Salmonella at time Interval 4 hr cfu/g,[4]; [19],1000 cfu/g
same,Salmonella at time Interval 24 hr % reduction,[4]; [19],96%
same,Salmonella at time Interval 24 hr cfu/g,[4]; [19],50 cfu/g
CCCCCCCCCC(=O)O [capric acid],minimum inhibitory concentration (MTC) to prevent growth of M. gypseum,[5]; in liquid media,75 µg/mL
same,minimum inhibitory concentration (MTC) to prevent growth of M. gypseum,[5]; on solid media,20 µg/mL
